According to patent publication US11433138B2, “Nanocarriers and intracellular delivery of same” (Georgia Tech Research Corporation, priority 2016, dated 2022):

Experiments:
[1] = molecular target: rabbit IgG (IgGR); experiment: Binding kinetics to biotinylated IgG immobilized on optical biosensors (rabbit IgG)
Method: (§1) Biotinylated IgG was immobilized onto optical biosensors to enable high throughput kinetic analyses in microplate format. The IgG-binding behavior to the Hex nanocarrier in comparison to soluble SPAB at neutral and acidic pH was assessed.

[2] = system: mouse IgG (IgGM); experiment: Binding kinetics to biotinylated IgG immobilized on optical biosensors (mouse IgG)
Method: as §1

For “domain B of staphylococcal protein A [SPAB]”, the Kd ([1]; pH 5.0) was 255 ± 17 nM, the Kd ([1]; pH 7.4) was 53 ± 2 nM and the “stronger binding at neutral pH compared to pH 5.0” value [2] was 17 fold. The “affinities towards mouse IgG (in words)” value ([2]; neutral pH and pH 5.0) was “nanomolar”, the Kd ([2]; pH 5.0) was 470 ± 19 nM and the Kd ([2]; pH 7.4) was 28.3 ± 2.8 nM.
